The structures appear in SMILES notation.

In this experiment the target is T1, human ACC2 (Homo sapiens, UniProt O00763).
T1 construct: lacks the 128 amino acids at the N-terminus for increased solubility (nt 385-6966 in Genbank entry AJ575592); made in house; host or cells: insect cells (baculoviral expression system)
T1 sequence (O00763 129-2458 limits assumed): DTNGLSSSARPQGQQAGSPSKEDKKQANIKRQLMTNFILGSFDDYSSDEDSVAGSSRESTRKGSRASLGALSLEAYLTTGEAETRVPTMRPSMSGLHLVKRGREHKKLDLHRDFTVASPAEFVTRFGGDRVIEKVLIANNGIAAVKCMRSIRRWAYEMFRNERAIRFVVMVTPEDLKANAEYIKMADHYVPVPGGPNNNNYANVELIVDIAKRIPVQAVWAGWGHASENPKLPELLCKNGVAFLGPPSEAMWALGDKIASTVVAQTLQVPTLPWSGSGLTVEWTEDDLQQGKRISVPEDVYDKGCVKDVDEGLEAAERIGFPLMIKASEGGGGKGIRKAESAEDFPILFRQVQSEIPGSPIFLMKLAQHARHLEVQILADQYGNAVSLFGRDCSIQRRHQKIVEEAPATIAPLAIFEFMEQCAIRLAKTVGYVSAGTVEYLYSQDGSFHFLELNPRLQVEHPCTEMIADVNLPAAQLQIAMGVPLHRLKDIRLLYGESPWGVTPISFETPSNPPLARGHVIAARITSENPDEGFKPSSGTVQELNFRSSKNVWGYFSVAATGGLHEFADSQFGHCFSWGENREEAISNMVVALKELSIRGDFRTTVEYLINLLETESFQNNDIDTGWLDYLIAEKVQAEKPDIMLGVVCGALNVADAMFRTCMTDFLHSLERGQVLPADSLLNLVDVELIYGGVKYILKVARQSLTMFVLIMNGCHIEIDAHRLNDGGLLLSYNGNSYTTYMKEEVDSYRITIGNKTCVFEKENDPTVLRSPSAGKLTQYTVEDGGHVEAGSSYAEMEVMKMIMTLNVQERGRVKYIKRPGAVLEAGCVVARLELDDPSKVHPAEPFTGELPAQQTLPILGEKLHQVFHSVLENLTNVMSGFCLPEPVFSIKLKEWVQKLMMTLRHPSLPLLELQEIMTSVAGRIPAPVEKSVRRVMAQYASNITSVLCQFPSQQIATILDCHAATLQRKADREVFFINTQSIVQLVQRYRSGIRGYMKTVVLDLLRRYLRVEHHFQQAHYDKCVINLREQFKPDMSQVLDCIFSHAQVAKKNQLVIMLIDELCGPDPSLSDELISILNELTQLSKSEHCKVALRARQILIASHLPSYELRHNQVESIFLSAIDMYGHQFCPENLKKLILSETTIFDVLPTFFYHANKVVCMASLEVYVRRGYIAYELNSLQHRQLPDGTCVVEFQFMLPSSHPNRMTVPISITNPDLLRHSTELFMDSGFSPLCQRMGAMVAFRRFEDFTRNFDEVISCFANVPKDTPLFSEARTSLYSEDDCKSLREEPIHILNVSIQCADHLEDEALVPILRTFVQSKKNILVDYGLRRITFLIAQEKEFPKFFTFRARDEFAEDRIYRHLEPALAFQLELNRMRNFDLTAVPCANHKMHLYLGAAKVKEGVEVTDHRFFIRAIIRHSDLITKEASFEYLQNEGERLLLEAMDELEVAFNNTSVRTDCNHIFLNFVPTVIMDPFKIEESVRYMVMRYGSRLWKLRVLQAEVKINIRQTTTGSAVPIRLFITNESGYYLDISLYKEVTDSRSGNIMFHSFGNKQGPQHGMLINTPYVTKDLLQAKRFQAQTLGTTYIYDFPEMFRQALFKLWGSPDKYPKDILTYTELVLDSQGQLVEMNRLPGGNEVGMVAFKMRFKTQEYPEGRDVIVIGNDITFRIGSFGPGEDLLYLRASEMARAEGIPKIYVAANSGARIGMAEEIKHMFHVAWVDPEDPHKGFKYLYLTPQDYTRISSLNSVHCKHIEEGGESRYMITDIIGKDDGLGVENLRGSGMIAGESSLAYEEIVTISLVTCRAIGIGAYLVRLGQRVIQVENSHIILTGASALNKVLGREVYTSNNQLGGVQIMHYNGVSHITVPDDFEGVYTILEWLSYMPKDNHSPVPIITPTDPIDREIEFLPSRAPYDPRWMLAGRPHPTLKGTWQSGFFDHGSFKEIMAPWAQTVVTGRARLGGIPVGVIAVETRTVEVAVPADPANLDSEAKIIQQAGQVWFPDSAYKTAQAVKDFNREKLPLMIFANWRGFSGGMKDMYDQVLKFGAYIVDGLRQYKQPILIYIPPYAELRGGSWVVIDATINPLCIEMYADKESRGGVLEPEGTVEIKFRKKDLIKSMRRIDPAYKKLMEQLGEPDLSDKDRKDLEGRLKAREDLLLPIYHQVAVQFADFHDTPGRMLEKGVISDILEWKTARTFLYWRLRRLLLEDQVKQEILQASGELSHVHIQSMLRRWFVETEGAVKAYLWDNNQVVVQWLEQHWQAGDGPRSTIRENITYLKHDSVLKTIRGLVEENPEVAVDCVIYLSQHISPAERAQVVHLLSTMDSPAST
Kind of experiment: ACC2 spectrophotometric 384 well assay (NADH-linked, coupled lactate dehydrogenase/pyruvate kinase). In kind it is biochemical. Conditions: hACC2 construct lacking the 128 N-terminal amino acids; 25° C., 340 nm, 15 minutes. As to the method: Spectrophotometric 384 Well Assay
Malonyl CoA formation by acetyl CoA carboxylases is stoichometrically linked to the consumption of ATP. ACC2 activity is measured in a NADH-linked kinetic method measuring ADP generated during the ACC reaction using a coupled lactate dehydrogenase/pyruvate kinase reaction.
For biological testing, a human ACC2 construct which lacks the 128 amino acids at the N-terminus for increased solubility (nt 385-6966 in Genbank entry AJ575592) is cloned. The protein is then expressed in insect cells using a baculoviral expression system. Protein purification is performed by anion exchange. All compounds are dissolved in dimethyl sulfoxide (DMSO) to a concentration of 10 mM.
Assay reactions are then carried out in 384-well plates, with hACC2 in an appropriate dilution and at final assay concentrations (f.c.) of 100 mM Tris (pH 7.5), 10 mM trisodium citrate, 25 mM KHCO3, 10 mM MgCl2, 0.5 mg/ml BSA, 3.75 mM reduced L-glutathione, 15 U/ml lactate dehydrogenase, 0.5 mM phosphoenolpyruvate, 15 U/ml pyruvate kinase, compounds at different concentrations at final DMSO concentrations of 1%.
The enzymatic reaction is then started by addition of a mixture of NADH, acetyl Coenzyme A (both […].) and ATP (500 uM f.c.). The decrease of the optical density (slope S) is then determined at 25° C. at a wavelength of 340 nm over 15 minutes in a spectrophotometric reader.
Each assay microtiter plate contains wells with vehicle instead of compound as controls for the non-inhibited enzyme (100% CTL; ‘HIGH’) and wells without acetyl-CoA as controls for non-specific NADH degradation (0% CTL; ‘LOW’).
The slope S is used for calculation of % CTL=(S(compound)−S(‘LOW’))/(S('HIGH)−S(‘LOW’))*100. Compounds will give values between 100% CTL (no inhibition) and 0% CTL (complete inhibition).
For IC50 value determination, the sample slope in the presence of the test compound after subtraction of the low controls (S(compound)−S(‘LOW’)) are used.
An IC50 value is derived from the compound slopes at different dosages after subtraction of the low controls (S(compound)−S(‘LOW’)) by non-linear regression curve fitting (equation y=(A+((B−A)/(1+((C/x)^D))))).
`CCNC(=O)C(C)c1ccc(C2CCN(c3ccc(OCC)cc3)CC2)cc1` (stereo not drawn) [Example 1.1, 2-{-4-[1-(4-Ethoxy-phenyl)-piperidin-4-yl]-phenyl}-N-ethyl-propionamide] returned an IC50 of 240 nM.

`CCNC(=O)C(C)c1ccc(C2CCN(c3ccc(OC4CC4)cc3)CC2)cc1` (stereo not drawn) [Example 1.2] displayed an IC50 of 210 nM.

Turning to `CCNC(=O)C(C)c1ccc(C2CCN(c3ccc(OCC4CC4)cc3)CC2)cc1` (stereo not drawn) [Example 1.3], the IC50 worked out at 240 nM.

The compound `CCNC(=O)C(C)c1ccc(C2CCN(c3ccc(OC(C)CC)cc3)CC2)cc1` (stereo not drawn) [Example 1.4] gave an IC50 of 890 nM.

With `CCNC(=O)C(C)c1ccc(C2CCN(c3ccc(OC4CCC4)cc3)CC2)cc1` (stereo not drawn) [Example 1.5], the IC50 came to 120 nM.

In the case of `CCNC(=O)C(C)c1ccc(C2CCN(c3ccnc(OCC)c3)CC2)cc1` (stereo not drawn) [Example 1.6], the IC50 was 510 nM.

The compound `CCCOc1ccc(N2CCC(c3ccc(C(C)C(=O)NCC)cc3)CC2)c(OC)c1` (stereo not drawn) [Example 1.7] had an IC50 of 320 nM.

The compound `CCCOc1ccc(N2CCC(c3ccc(C(C)C(=O)NCC)cc3)CC2)cc1` (stereo not drawn) [Example 1.8] returned an IC50 of 180 nM.

Compound `CCNC(=O)C(C)c1ccc(C2CCN(c3ccc(OC(C)C)cc3OC)CC2)cc1` (stereo not drawn) [Example 1.9] gave an IC50 of 510 nM.

`CCNC(=O)C(C)c1ccc(C2CCN(c3ccc(OC4CC4)cc3OC)CC2)cc1` (stereo not drawn) [Example 1.11] came in with an IC50 of 520 nM.

Compound `CCNC(=O)C(C)c1ccc(C2CCN(c3ccc(OCC)cc3F)CC2)cc1` (stereo not drawn) [Example 1.12] came in with an IC50 of 330 nM.

Compound `CCOc1ccc(N2CCC(c3ccc(C(C)C(=O)NC4CC4)cc3)CC2)c(F)c1` (stereo not drawn) [Example 1.13] showed an IC50 of 140 nM.

On to `CC(C(=O)NC1CC1)c1ccc(C2CCN(c3ccc(OCC4CC4)cc3)CC2)cc1` (stereo not drawn) [Example 1.14], for which 80 nM corresponded to half-maximal inhibition (IC50).

Compound `CCNC(=O)C(C)c1ccc(C2CCN(c3ccc(OCC4CC4)cc3OC)CC2)cc1` (stereo not drawn) [Example 2.1, 2-{-4-[1-(4-Cyclopropylmethoxy-2-methoxy-phenyl)-piperidin-4-yl]-phenyl}-N-ethyl-propionamide] yielded an IC50 of 750 nM.

Regarding `CCNC(=O)C(C)c1ccc(C2CCN(c3ccc(OC4CCC4)cc3OC)CC2)cc1` (stereo not drawn) [Example 2.2], half-maximal inhibition (IC50) required 250 nM.

`CC(C(=O)NC1CC1)c1ccc(C2CCN(c3ccc(OCC4CC4)cc3C#N)CC2)cc1` (stereo not drawn) [Example 3.1, 2-{4-[1-(2-Cyano-4-cyclopropylmethoxy-phenyl)-piperidin-4-yl]-phenyl}-N-cyclopropyl-propionamide]: the IC50 amounted to 150 nM.

As for `CCNC(=O)C(C)c1ccc(C2CCN(c3ccc(OC)cc3C#N)CC2)cc1` (stereo not drawn) [Example 3.2], inhibition was half-maximal at 450 nM (IC50).

In turn, `CCOc1ccc(N2CCC(c3ccc(C(C)C(=O)NC4CC4)cc3)CC2)c(C#N)c1` (stereo not drawn) [Example 3.3] displayed an IC50 of 140 nM.

For `CCCOc1ccc(N2CCC(c3ccc(C(C)C(=O)NC4CC4)cc3)CC2)c(C#N)c1` (stereo not drawn) [Example 3.4], the IC50 turned out to be 120 nM.

As to `CCOc1ccc(N2CCC(c3ccc(C(C)C(=O)NC4CC4)cc3)CC2)cc1` (stereo not drawn) [Example 4.1, N-Cyclopropyl-2-{4-[1-(4-ethoxy-phenyl)-piperidin-4-yl]-phenyl}-propionamide], the IC50 turned out to be 100 nM.

Regarding `CCNC(=O)Cc1ccc(C2CCN(c3ccnc(N(C)C4CCCC4)n3)CC2)cc1` [Example 4.2], the IC50 turned out to be 400 nM.

In turn, `CCOc1ccc(N2CCC(c3ccc(C(C)C(=O)NC)cc3)CC2)cc1` (stereo not drawn) [Example 4.3] came in with an IC50 of 760 nM.

The compound `CCOc1ccc(N2CCC(c3ccc(C(C)C(=O)N(C)C)cc3)CC2)cc1` (stereo not drawn) [Example 4.4] registered an IC50 of 6650 nM.

`CCOc1ccc(N2CCC(c3ccc(C(C)C(=O)N(C)CC)cc3)CC2)cc1` (stereo not drawn) [Example 4.5] came in with an IC50 of 5210 nM.

Turning to `CCOc1ccc(N2CCC(c3ccc(C(C)C(=O)Nc4ccccc4)cc3)CC2)cc1` (stereo not drawn) [Example 4.6], the IC50 came out at 80 nM.

For the compound `CN(c1nccc(N2CCC(c3ccc(CC(N)=O)cc3)CC2)n1)C1CCCC1` [Example 4.7], the IC50 amounted to 1260 nM.

The compound `CCN(C)C(=O)Cc1ccc(C2CCN(c3ccnc(N(C)C4CCCC4)n3)CC2)cc1` [Example 4.8] showed an IC50 of 12500 nM.

Compound `CN(c1nccc(N2CCC(c3ccc(CC(=O)N4CCOCC4)cc3)CC2)n1)C1CCCC1` [Example 4.9] yielded an IC50 of 5530 nM.

`CN(c1nccc(N2CCC(c3ccc(CC(=O)NC4CCCC4)cc3)CC2)n1)C1CCCC1` [Example 4.10]: the IC50 is 4180 nM.

The compound `CN(c1nccc(N2CCC(c3ccc(CC(=O)Nc4ccccc4)cc3)CC2)n1)C1CCCC1` [Example 4.11] showed an IC50 of 720 nM.

In turn, `CN(c1nccc(N2CCC(c3ccc(CC(=O)NCc4ccccc4)cc3)CC2)n1)C1CCCC1` [Example 4.12] registered an IC50 of 7940 nM.

In turn, `CC(C)CNC(=O)Cc1ccc(C2CCN(c3ccnc(N(C)C4CCCC4)n3)CC2)cc1` [Example 4.13] showed an IC50 of 1860 nM.

`COCCNC(=O)Cc1ccc(C2CCN(c3ccnc(N(C)C4CCCC4)n3)CC2)cc1` [Example 4.14] showed an IC50 of 4830 nM.

In turn, `CCCNC(=O)C(C)c1ccc(C2CCN(c3ccc(OCC)cc3)CC2)cc1` (stereo not drawn) [Example 4.15] registered an IC50 of 290 nM.

`CCOc1ccc(N2CCC(c3ccc(C(C)C(=O)NCC4CC4)cc3)CC2)cc1` (stereo not drawn) [Example 4.16] returned an IC50 of 650 nM.

`CCOc1ccc(N2CCC(c3ccc(C(C)C(N)=O)cc3)CC2)cc1` (stereo not drawn) [Example 4.17]: 770 nM corresponded to half-maximal inhibition (IC50).

As for `CCNC(=O)C(C)c1ccc(C2CCN(c3ccnc(N(C)C4CCCC4)n3)CC2)cc1` (stereo not drawn) [Example 5.1, 2-(4-{1-[2-(Cyclopentyl-methyl-amino)-pyrimidin-4-yl]-piperidin-4-yl}-phenyl)-N-ethyl-propionamide], the midpoint of inhibition, the IC50, lay at 370 nM.

Compound `CCNC(=O)C(C)c1ccc(C2CCN(c3ccnc(N(C)C)n3)CC2)cc1` (stereo not drawn) [Example 5.2] registered an IC50 of 630 nM.

`CCNC(=O)C(C)c1ccc(C2CCN(c3ccnc(NC(C)C)n3)CC2)cc1` (stereo not drawn) [Example 5.3] gave an IC50 of 7630 nM.

With `CCNC(=O)C(C)c1ccc(C2CCN(c3ccnc(OCC)n3)CC2)cc1` (stereo not drawn) [Example 6.1, 2-{4-[1-(2-Ethoxy-pyrimidin-4-yl)-piperidin-4-yl]-phenyl}-N-ethyl-propionamide], the IC50 amounted to 5480 nM.

The compound `CCNC(=O)C(C)c1ccc(C2CCN(c3ccnc(OC(C)C)n3)CC2)cc1` (stereo not drawn) [Example 6.2] gave an IC50 of 3050 nM.

Consider `CCNC(=O)C(C)c1ccc(N2CCC(c3ccc(OCC)cc3)CC2)cc1` (stereo not drawn) [Example 7.1, 2-{4-[4-(4-Ethoxy-phenyl)-piperidin-1-yl]-phenyl}-N-ethyl-propionamide], for which the IC50 turned out to be 1000 nM.

`CCNC(=O)C(C)c1ccc(N2CCC(c3ccc(OCC4CC4)cc3F)CC2)cc1` (stereo not drawn) [Example 7.2] showed an IC50 of 1010 nM.

On to `CCOc1ccc(C2CCN(c3ccc(C(C)C(=O)NC4CC4)cc3)CC2)cc1` (stereo not drawn) [Example 7.3], for which the IC50 stood at 890 nM.

Compound `CCCOc1ccc(C2CCN(c3ccc(C(C)C(=O)NCC)cc3)CC2)cc1` (stereo not drawn) [Example 7.4] gave an IC50 of 220 nM.

As to `CCNC(=O)C(C)c1ccc(N2CCC(c3ccc(OCC4CC4)cc3)CC2)cc1` (stereo not drawn) [Example 7.5], 360 nM corresponded to half-maximal inhibition (IC50).

`CCNC(=O)C(C)c1ccc(N2CCC(c3cccc(OCC4CC4)c3)CC2)cc1` (stereo not drawn) [Example 7.6] gave an IC50 of 2310 nM.

As for `CCNC(=O)C(C)c1ccc(N2CCC(c3ccc(OC(C)C)cc3)CC2)cc1` (stereo not drawn) [Example 7.7], the IC50 came out at 340 nM.

The compound `CCNC(=O)C(C)c1ccc(N2CCC(c3cccc(OC4CCC4)c3)CC2)cc1` (stereo not drawn) [Example 7.8] displayed an IC50 of 1650 nM.

As for `CCNC(=O)C(C)c1ccc(N2CCC(c3ccc(OC4CCC4)cc3)CC2)cc1` (stereo not drawn) [Example 7.9], inhibition was half-maximal at 120 nM (IC50).

Take `CCCOc1ccc(C2CCN(c3ccc(C(C)C(=O)NCC)cc3)CC2)c(C)c1` (stereo not drawn) [Example 7.10]: half-maximal inhibition (IC50) was put at 840 nM.

In turn, `CCCOc1cccc(C2CCN(c3ccc(C(C)C(=O)NCC)cc3)CC2)c1` (stereo not drawn) [Example 7.11] returned an IC50 of 3850 nM.

For `CCNC(=O)C(C)c1ccc(N2CCC(c3cccc(OC(C)C)c3)CC2)cc1` (stereo not drawn) [Example 7.12], the IC50 was determined as 1800 nM.

Compound `CCNC(=O)C(C)c1ccc(N2CCC(c3cccc(OCC)c3)CC2)cc1` (stereo not drawn) [Example 7.13] had an IC50 of 4840 nM.

Broadly, the IC50 is the concentration that inhibits the measured activity by half. Low values mean higher potency, high ones lower potency.

(Values after patent US8759528B2, “Piperidine derivatives, pharmaceutical compositions and uses thereof” (Boehringer Ingelheim International GmbH, priority 2011, dated 2014).)
